PMC10590756, “Glutarate regulates T cell metabolism and anti-tumour immunity” (Nature Metabolism, 2023)

Columns and labels:
murine CD8^+ T cells = assay: Cell growth and viability of murine CD8^+ T cells; format: cell-based; conditions: 7 days
Experimental: After 7 days of culture, we assessed the abundance of CD62L^hiCD44^hi (TCM-like) T cells by flow cytometry (Fig. 1a). We additionally determined the effect of each compound on cell growth and viability (Fig. 1b and Extended Data Fig. 1a).
B16F10 cells were originally purchased from ATCC (catalogue no. CRL-6475) and genetically modified to express OVA, enhanced green fluorescent protein (GFP) and neomycin phosphotransferase. The resulting OVA expression B16F10-OVA cells were cultured in DMEM (catalogue no. 11995065, Thermo Fisher Scientific) containing 0.75 mg ml^−1 G418 sulphate (catalogue no. 10131027, Thermo Fisher Scientific). HEK 293T cells were purchased from Takara Bio (catalogue no. 632180) and cultured in DMEM. SKOV3 was purchased from ATCC (catalogue no. HTB-77) and cultured in McCoy’s 5A (Modified) Medium (catalogue no. 16600082, Thermo Fisher Scientific). Raji-GFP-Luc cells were purchased from Biocytogen (catalogue no. B-HCL-010) and cultured in Roswell Park Memorial Institute (RPMI) 1640 (catalogue no. 21875, Thermo Fisher Scientific). Jurkat cells were purchased from ATCC (catalogue no. TIB-152) and cultured in RPMI 1640. RAW 264.7 cells were purchased from ATCC (catalogue no. TIB-71) and cultured in RPMI 1640. HeLa cells were a gift from P. Lehner (University of Cambridge) and were authenticated using short tandem repeat profiling (Eurofins Genomics). HeLa cells were cultured in DMEM. MEFs were isolated from macerated embryonic day (E) 12.5–13.5 embryos. A whole litter of embryos without sex selection were used. Stable transfection with SV40 large T antigen passage 3 was used for immortalization. Cells were subcultured over 17 more passages and maintained in DMEM[63]. All media was supplemented with 10% FCS (catalogue no. 10270106, Gibco), 100 U ml^−1 penicillin and 100 µg ml^−1 streptomycin (catalogue no. P4333, Sigma-Aldrich). […] Cell number and viability was determined using the ADAM-MC Automated Cell Counter (NanoEntek), CellDrop Automated Cell Counter (DeNovix) or TC20 Automated Cell Counter (Bio-Rad Laboratories). […]

[1] = system: H3 lysine methylation in human CD8^+ T cells; assay: Histone 3 methylation western blot; format: cell-based; conditions: 7 days
Experimental: Histones were extracted with the Histone Extraction Kit (catalogue no. ab113476, Abcam). Proteins were separated by SDS–PAGE and transferred to polyvinylidene fluoride (PVDF) membranes. Total protein stain was obtained using non-stain protein labelling reagent (catalogue no. A44448, Thermo Fisher Scientific). Membranes were then blocked in 5% milk prepared in PBS plus 0.05% Tween-20, incubated with primary antibodies overnight at 4 °C and horseradish peroxidase (HRP)-conjugated secondary antibodies (catalogue nos. HAF008 and HAF007, R&D Systems) for 1 h the next day. After enhanced chemiluminescence (ECL) exposure (catalogue no. GERPN2106, Sigma-Aldrich), membranes were imaged using an iBrightCL1000 (Thermo Fisher Scientific). […] 13998); and anti-H3k27ac (catalogue no.

Row | SMILES | concentration from which cell growth is decreased (murine CD8^+ T cells) | H3K9me2 levels on addition of αKG to DEG ([1]; 500 µM αKG with 500 µM DEG) | DEG-induced increase in H3K9 and H3K27 trimethylation on addition of αKG ([1]; equimolar αKG (500 µM) with 500 µM DEG)
1 | CCCCCCCCOC(=O)[C@@H](O)CCC(=O)[O-].[Na+] [octyl ester S-2HG, (2S)-2-hydroxyglutaric acid octyl ester sodium salt, reference compound] | ≥ 400 µM | – | –
2 | O=C(O)CCC(=O)C(=O)O [αKG, α-ketoglutarate, reference compound] | – | not reduced | abrogated
